Experimental data from ChEMBL document CHEMBL1201862, “PubChem BioAssay data set” (2004).
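96-well plates; 48 h exposure; 5 concentrations. Endpoints by linear interpolation between flanking doses. Not reached: highest tested concentration assigned. GI50 = concentration required for 50% inhibition of growth.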 Calls of active or inactive are those of the source. Cut-off read from the data, not from the text of the source: active = GI50 up to about 1.1 µM and inactive = higher.

Legend:
Test in all cases: growth of human tumour cells (NCI), 48 h
Malme-3M = system: Malme-3M
NCI-H23 = system: NCI-H23
OVCAR-8 = system: OVCAR-8
UACC-62 = system: UACC-62
CCRF-CEM = system: CCRF-CEM
M14 = system: M14
BT-549 = system: BT-549
PC-3 = system: PC-3
SW-620 = system: SW-620
SF-295 = system: SF-295
HCT-15 = system: HCT-15
A498 = system: A498
OVCAR-4 = system: OVCAR-4
SF-268 = system: SF-268
HCT-116 = system: HCT-116
RPMI-8226 = system: RPMI-8226
HL-60 = system: HL-60
COLO 205 = system: COLO 205
HOP-92 = system: HOP-92
NCI-H522 = system: NCI-H522
MDA-N = system: MDA-N
LOX IMVI = system: LOX IMVI
SK-OV-3 = system: SK-OV-3
DU-145 = system: DU-145
RXF 393 = system: RXF 393
SR = system: SR
HOP-62 = system: HOP-62
MDA-MB-435 = system: MDA-MB-435
ACHN = system: ACHN
SN12C = system: SN12C
A549 = system: A549
EKVX = system: EKVX
UO-31 = system: UO-31
K562 = system: K562
T47D = system: T47D
NCI/ADR-RES = system: NCI/ADR-RES
HT-29 = system: HT-29
SK-MEL-28 = system: SK-MEL-28
HCC 2998 = system: HCC 2998
MOLT-4 = system: MOLT-4
SNB-75 = system: SNB-75
SK-MEL-5 = system: SK-MEL-5
IGROV-1 = system: IGROV-1
U-251 = system: U-251
NCI-H226 = system: NCI-H226
SNB-19 = system: SNB-19
Hs-578T = system: Hs-578T
NCI-H460 = system: NCI-H460
OVCAR-5 = system: OVCAR-5
TK-10 = system: TK-10
MDA-MB-231 = system: MDA-MB-231
786-0 = system: 786-0
CAKI-1 = system: CAKI-1
KM12 = system: KM12
OVCAR-3 = system: OVCAR-3
MCF7 = system: MCF7
SF-539 = system: SF-539
UACC-257 = system: UACC-257
SK-MEL-2 = system: SK-MEL-2

With `Cc1ccc(-c2cc(-c3ccco3)c(C#N)c(=S)[nH]2)cc1` the GI50 (Malme-3M) was 24.2 µM (inactive), the GI50 (NCI-H23) was 29.9 µM (inactive) and the GI50 (OVCAR-8) was 68.1 µM (inactive). For the same compound, the GI50 (UACC-62) was 26.8 µM (inactive), the GI50 (CCRF-CEM) was 38.3 µM (inactive) and the GI50 (M14) was 63.8 µM (inactive). For the same compound, the GI50 (BT-549) was 42.8 µM (inactive), the GI50 (PC-3) was 28.3 µM (inactive) and the GI50 (SW-620) was 53.3 µM (inactive). The GI50 (SF-295) was 38.7 µM (inactive), the GI50 (HCT-15) was 42 µM and the GI50 (A498) was 36.3 µM (inactive). For the same compound, the GI50 (OVCAR-4) was 75.5 µM (inactive), the GI50 (SF-268) was 40.6 µM (inactive) and the GI50 (HCT-116) was 50.5 µM (inactive). The GI50 (RPMI-8226) was 35.5 µM (inactive), the GI50 (HL-60) was 57 µM (inactive) and the GI50 (COLO 205) was 97.3 µM (inactive). For the same compound, the GI50 (HOP-92) was 99.5 µM (inactive), the GI50 (NCI-H522) was 44.2 µM (inactive) and the GI50 (MDA-N) was > 10 µM (inactive). For the same compound, the GI50 (LOX IMVI) was 34.8 µM (inactive), the GI50 (SK-OV-3) was 39.9 µM (inactive) and the GI50 (DU-145) was 93.5 µM (inactive). For the same compound, the GI50 (RXF 393) was 55.8 µM (inactive), the GI50 (SR) was 42.5 µM (inactive) and the GI50 (HOP-62) was > 100 µM (inactive). The GI50 (MDA-MB-435) was 23.9 µM (inactive), the GI50 (ACHN) was 35.6 µM (inactive) and the GI50 (SN12C) was 87.9 µM (inactive). The GI50 (A549) was 43.9 µM (inactive), the GI50 (EKVX) was 90.6 µM (inactive) and the GI50 (UO-31) was 33.9 µM (inactive). For the same compound, the GI50 (K562) was 41 µM (inactive), the GI50 (T47D) was 20.4 µM (inactive) and the GI50 (NCI/ADR-RES) was > 100 µM (inactive). The GI50 (HT-29) was 92.3 µM (inactive), the GI50 (SK-MEL-28) was 20.8 µM (inactive) and the GI50 (HCC 2998) was 67.5 µM (inactive). The GI50 (MOLT-4) was 32.2 µM (inactive), the GI50 (SNB-75) was 49.8 µM (inactive) and the GI50 (SK-MEL-5) was 22.8 µM (inactive). For the same compound, the GI50 (IGROV-1) was 25.7 µM (inactive), the GI50 (U-251) was 21.4 µM (inactive) and the GI50 (NCI-H226) was 31.5 µM (inactive). For the same compound, the GI50 (SNB-19) was 32.1 µM (inactive), the GI50 (Hs-578T) was 38.5 µM (inactive) and the GI50 (NCI-H460) was 46.2 µM (inactive). The GI50 (OVCAR-5) was > 100 µM (inactive), the GI50 (TK-10) was > 100 µM (inactive) and the GI50 (MDA-MB-231) was 43.2 µM (inactive). The GI50 (786-0) was 77.3 µM (inactive), the GI50 (CAKI-1) was > 100 µM (inactive) and the GI50 (KM12) was 63.2 µM (inactive). The GI50 (OVCAR-3) was 61.7 µM (inactive) and the GI50 (MCF7) was 16.2 µM (inactive).
`COc1cc2c(OC)c(c1)CCCC1=CC(=O)C=C(CCC2)C1=O` was tested, and the GI50 (Malme-3M) was 10.4 µM (inactive), the GI50 (NCI-H23) was 50.2 µM (inactive) and the GI50 (OVCAR-8) was 20.4 µM (inactive). For the same compound, the GI50 (UACC-62) was 31.8 µM (inactive), the GI50 (CCRF-CEM) was 3.09 µM (inactive) and the GI50 (M14) was 26.7 µM (inactive). For the same compound, the GI50 (BT-549) was 33.3 µM (inactive), the GI50 (PC-3) was 28.6 µM (inactive) and the GI50 (SW-620) was 32.1 µM (inactive). For the same compound, the GI50 (SF-295) was 50.2 µM (inactive), the GI50 (SF-539) was 35.6 µM (inactive) and the GI50 (HCT-15) was 33.6 µM. For the same compound, the GI50 (A498) was > 100 µM (inactive), the GI50 (OVCAR-4) was 17.2 µM (inactive) and the GI50 (SF-268) was 37.8 µM (inactive). The GI50 (HCT-116) was 17.1 µM (inactive), the GI50 (RPMI-8226) was 7.6 µM (inactive) and the GI50 (HL-60) was 6.1 µM (inactive). The GI50 (COLO 205) was 21.9 µM (inactive), the GI50 (HOP-92) was 5.6 µM (inactive) and the GI50 (NCI-H522) was 21 µM (inactive). For the same compound, the GI50 (MDA-N) was 15.2 µM (inactive), the GI50 (LOX IMVI) was 16.6 µM (inactive) and the GI50 (SK-OV-3) was 56.9 µM (inactive). For the same compound, the GI50 (DU-145) was > 68.4 µM (inactive), the GI50 (RXF 393) was 26.7 µM (inactive) and the GI50 (SR) was 3.54 µM (inactive). For the same compound, the GI50 (HOP-62) was 78.7 µM (inactive), the GI50 (MDA-MB-435) was 23.8 µM (inactive) and the GI50 (ACHN) was 47.5 µM (inactive). For the same compound, the GI50 (SN12C) was 20.8 µM (inactive), the GI50 (A549) was 58.7 µM (inactive) and the GI50 (EKVX) was 41.1 µM (inactive). For the same compound, the GI50 (UO-31) was 43.9 µM (inactive), the GI50 (K562) was 14.6 µM (inactive) and the GI50 (T47D) was 23.2 µM (inactive). The GI50 (NCI/ADR-RES) was 32 µM (inactive), the GI50 (HT-29) was 44.9 µM (inactive) and the GI50 (SK-MEL-28) was 54.2 µM (inactive). For the same compound, the GI50 (HCC 2998) was 43.5 µM (inactive), the GI50 (UACC-257) was 35 µM (inactive) and the GI50 (MOLT-4) was 2.72 µM (inactive). The GI50 (SNB-75) was > 60.3 µM (inactive), the GI50 (SK-MEL-5) was 30.3 µM (inactive) and the GI50 (IGROV-1) was 40.8 µM (inactive). For the same compound, the GI50 (U-251) was 40.1 µM (inactive), the GI50 (NCI-H226) was > 100 µM (inactive) and the GI50 (SNB-19) was 29.4 µM (inactive). For the same compound, the GI50 (Hs-578T) was 30.9 µM (inactive), the GI50 (NCI-H460) was 41.9 µM (inactive) and the GI50 (OVCAR-5) was > 100 µM (inactive). The GI50 (TK-10) was > 100 µM (inactive), the GI50 (MDA-MB-231) was 25.5 µM (inactive) and the GI50 (786-0) was 29 µM (inactive). For the same compound, the GI50 (CAKI-1) was > 100 µM (inactive), the GI50 (KM12) was 21.9 µM (inactive) and the GI50 (OVCAR-3) was 22.6 µM (inactive). The GI50 (MCF7) was 39 µM (inactive).
With `CCOC(=O)Cc1nc2sc(S(N)(=O)=O)nn2c1Br` the GI50 (Malme-3M) was 29.2 µM (inactive), the GI50 (NCI-H23) was 27.6 µM (inactive) and the GI50 (OVCAR-8) was 21.3 µM (inactive). The GI50 (UACC-62) was 16.6 µM (inactive), the GI50 (CCRF-CEM) was < 0.01 µM (active) and the GI50 (M14) was 15.7 µM (inactive). The GI50 (BT-549) was 32.1 µM (inactive), the GI50 (PC-3) was 22 µM (inactive) and the GI50 (SK-MEL-2) was 28.5 µM (inactive). The GI50 (SW-620) was 23.6 µM (inactive), the GI50 (SF-295) was > 100 µM (inactive) and the GI50 (HCT-15) was 23.7 µM. The GI50 (A498) was 26.5 µM (inactive), the GI50 (SF-268) was 56.5 µM (inactive) and the GI50 (HCT-116) was 31 µM (inactive). For the same compound, the GI50 (RPMI-8226) was 17.3 µM (inactive), the GI50 (HL-60) was 25.5 µM (inactive) and the GI50 (COLO 205) was 39.4 µM (inactive). For the same compound, the GI50 (HOP-92) was 22.8 µM (inactive), the GI50 (NCI-H522) was 19.1 µM (inactive) and the GI50 (MDA-N) was 35.1 µM (inactive). The GI50 (LOX IMVI) was 16.1 µM (inactive), the GI50 (SK-OV-3) was > 100 µM (inactive) and the GI50 (DU-145) was 33.9 µM (inactive). For the same compound, the GI50 (RXF 393) was 21.7 µM (inactive), the GI50 (SR) was 40.6 µM (inactive) and the GI50 (HOP-62) was > 100 µM (inactive). For the same compound, the GI50 (MDA-MB-435) was 38.7 µM (inactive), the GI50 (ACHN) was 27.2 µM (inactive) and the GI50 (SN12C) was 23.5 µM (inactive). The GI50 (A549) was 33 µM (inactive), the GI50 (EKVX) was 26.6 µM (inactive) and the GI50 (UO-31) was 15.8 µM (inactive). For the same compound, the GI50 (K562) was 41.5 µM (inactive), the GI50 (T47D) was 27.3 µM (inactive) and the GI50 (NCI/ADR-RES) was 47.4 µM (inactive). The GI50 (HT-29) was 19.4 µM (inactive), the GI50 (SK-MEL-28) was 33.1 µM (inactive) and the GI50 (HCC 2998) was 22.2 µM (inactive). The GI50 (UACC-257) was 29.9 µM (inactive), the GI50 (SNB-75) was 32.1 µM (inactive) and the GI50 (SK-MEL-5) was 16.1 µM (inactive). For the same compound, the GI50 (IGROV-1) was 28.4 µM (inactive), the GI50 (U-251) was 15.3 µM (inactive) and the GI50 (NCI-H226) was 27.2 µM (inactive). For the same compound, the GI50 (SNB-19) was 87.7 µM (inactive), the GI50 (Hs-578T) was > 100 µM (inactive) and the GI50 (NCI-H460) was 32 µM (inactive). The GI50 (OVCAR-5) was 22.1 µM (inactive), the GI50 (TK-10) was 35.1 µM (inactive) and the GI50 (MDA-MB-231) was 17.6 µM (inactive). For the same compound, the GI50 (786-0) was 23.2 µM (inactive), the GI50 (CAKI-1) was 17.2 µM (inactive) and the GI50 (KM12) was 32.3 µM (inactive). For the same compound, the GI50 (OVCAR-3) was 36.6 µM (inactive) and the GI50 (MCF7) was 24.7 µM (inactive).
